# Reference: US11427567B2, “Imidazolyl pyrimidinylamine compounds as CDK2 inhibitors” (Incyte Corporation, priority 2019, dated 2022)
# Target: CDK2/Cyclin E1 (Homo sapiens (Human), UniProt P24941)
# Assay: CDK2/Cyclin E1 HTRF enzyme activity assay (Example A)
# Assay type: biochemical
# Settings: 1 mM ATP
# Experimental: Assays were conducted in white 384-well polystyrene plates in a final reaction volume of 8 μL. […] HTRF signals were read after 1 hour at room temperature on a PHERAstar FS plate reader (BMG Labtech). Data was analyzed with IDBS XLFit and GraphPad Prism 5.0 software using a three or four parameter dose response curve to determine IC50 for each compound.
row,SMILES,IC50 [nM]
1,"CNc1nccc(-n2cnc(-c3nc(NC4CCN(S(C)(=O)=O)CC4)ncc3C(F)(F)F)c2)c1Cl [Example 322, 4-(1-(3-Chloro-2-(methylamino)pyridin-4-yl)-1H-imidazol-4-yl)-N-(1-(methylsulfonyl)piperidin-4-yl)-5-(trifluoromethyl)pyrimidin-2-amine]",≤ 50
2,"CC(C)(O)Cn1cnc(-c2nc(N[C@H]3CCN(S(=O)(=O)C4CC4)C[C@H]3F)ncc2C(F)(F)F)c1 [Example 323, 1-(4-(2-(((3R,4S)-1-(Cyclopropylsulfonyl)-3-fluoropiperidin-4-yl)amino)-5-(trifluoromethyl)pyrimidin-4-yl)-1H-imidazol-1-yl)-2-methylpropan-2-ol]",≤ 50
3,"CCS(=O)(=O)N1CCC(Nc2ncc(C(F)(F)F)c(-c3cn(CC(C)(C)O)cn3)n2)CC1 [Example 324, 1-(4-(2-((1-(Ethylsulfonyl)piperidin-4-yl)amino)-5-(trifluoromethyl)pyrimidin-4-yl)-1H-imidazol-1-yl)-2-methylpropan-2-ol]",≤ 50
4,"CC(C)(O)Cn1cnc(-c2nc(N[C@H]3CCN(S(C)(=O)=O)C[C@H]3F)ncc2C(F)(F)F)c1 [Example 325, 1-(4-(2-(((3R,4S)-3-Fluoro-1-(methylsulfonyl)piperidin-4-yl)amino)-5-(trifluoromethyl)pyrimidin-4-yl)-1H-imidazol-1-yl)-2-methylpropan-2-ol]",≤ 50
5,"CC(C)(O)Cn1cnc(-c2nc(N[C@@H]3CCN(S(C)(=O)=O)C[C@H]3F)ncc2C(F)(F)F)c1 [Example 326, 1-(4-(2-(((3R,4R)-3-Fluoro-1-(methylsulfonyl)piperidin-4-yl)amino)-5-(trifluoromethyl)pyrimidin-4-yl)-1H-imidazol-1-yl)-2-methylpropan-2-ol]",≤ 50
6,"C[C@@H]1CN(S(C)(=O)=O)CC[C@@H]1Nc1ncc(C(F)(F)F)c(-c2cn(CC(C)(C)O)cn2)n1 [Example 327, 2-Methyl-1-(4-(2-(((3R,4S)-3-methyl-1-(methylsulfonyl)piperidin-4-yl)amino)-5-(trifluoromethyl)pyrimidin-4-yl)-1H-imidazol-1-yl)propan-2-ol]",≤ 50
7,"CCS(=O)(=O)N1CCC(Nc2ncc(C(F)(F)F)c(-c3cn(CC(F)F)cn3)n2)CC1 [Example 328, 4-(1-(2,2-Difluoroethyl)-1H-imidazol-4-yl)-N-(1-(ethylsulfonyl)piperidin-4-yl)-5-(trifluoromethyl)pyrimidin-2-amine]",≤ 50
8,"O=S(=O)(C1CC1)N1CC[C@H](Nc2ncc(C(F)(F)F)c(-c3cn(CC(F)F)cn3)n2)[C@H](F)C1 [Example 329, N-((3R,4S)-1-(Cyclopropylsulfonyl)-3-fluoropiperidin-4-yl)-4-(1-(2,2-difluoroethyl)-1H-imidazol-4-yl)-5-(trifluoromethyl)pyrimidin-2-amine]",≤ 50
9,"CS(=O)(=O)N1CC[C@H](Nc2ncc(C(F)(F)F)c(-c3cn(CC(F)F)cn3)n2)[C@H](F)C1 [Example 330, 4-(1-(2,2-Difluoroethyl)-1H-imidazol-4-yl)-N-((3R,4S)-3-fluoro-1-(methylsulfonyl)piperidin-4-yl)-5-(trifluoromethyl)pyrimidin-2-amine]",≤ 50
10,"CS(=O)(=O)N1CC[C@@H](Nc2ncc(C(F)(F)F)c(-c3cn(CC(F)F)cn3)n2)[C@H](F)C1 [Example 331, 4-(1-(2,2-Difluoroethyl)-1H-imidazol-4-yl)-N-((3R,4R)-3-fluoro-1-(methylsulfonyl)piperidin-4-yl)-5-(trifluoromethyl)pyrimidin-2-amine]",≤ 50
11,"C[C@@H]1CN(S(=O)(=O)C2CC2)CC[C@@H]1Nc1ncc(C(F)(F)F)c(-c2cn(CC(C)(C)O)cn2)n1 [Example 332, 1-(4-(2-(((3R,4S)-1-(Cyclopropylsulfonyl)-3-methylpiperidin-4-yl)amino)-5-(trifluoromethyl)pyrimidin-4-yl)-1H-imidazol-1-yl)-2-methylpropan-2-ol]",≤ 50
12,"CC(C)(O)Cn1cnc(-c2nc(N[C@@H]3CCN(S(=O)(=O)C4CC4)C[C@H]3F)ncc2C(F)(F)F)c1 [Example 333, 1-(4-(2-(((3R,4R)-1-(Cyclopropylsulfonyl)-3-fluoropiperidin-4-yl)amino)-5-4-yl)-1H-imidazol-1-yl)-2-methylpropan-2-ol]",≤ 50
13,"Cn1cc(S(=O)(=O)N2CCC(Nc3ncc(C(F)(F)F)c(-c4cn(CC(F)F)cn4)n3)CC2)cn1 [Example 334, 4-(1-(2,2-Difluoroethyl)-1H-imidazol-4-yl)-N-(1-((1-methyl-1H-pyrazol-4-yl)sulfonyl)piperidin-4-yl)-5-(trifluoromethyl)pyrimidin-2-amine]",≤ 50
14,"Cn1ccc(S(=O)(=O)N2CC[C@@H](Nc3ncc(C(F)(F)F)c(-c4cn(CC(C)(C)O)cn4)n3)[C@H](F)C2)n1 [Example 335, 1-(4-(2-(((3R,4R)-3-Fluoro-1-((1-methyl-1H-pyrazol-3-yl)sulfonyl)piperidin-4-yl)amino)-5-(trifluoromethyl)pyrimidin-4-yl)-1H-imidazol-1-yl)-2-methylpropan-2-ol]",≤ 50
15,"Cn1cc(S(=O)(=O)N2CC[C@@H](Nc3ncc(C(F)(F)F)c(-c4cn(CC(C)(C)O)cn4)n3)[C@H](F)C2)cn1 [Example 336, 1-(4-(2-(((3R,4R)-3-Fluoro-1-((1-methyl-1H-pyrazol-4-yl)sulfonyl)piperidin-4-yl)amino)-5-(trifluoromethyl)pyrimidin-4-yl)-1H-imidazol-1-yl)-2-methylpropan-2-ol]",≤ 50
16,"C[C@@H]1CN(S(=O)(=O)c2cn(C)cn2)CC[C@@H]1Nc1ncc(C(F)(F)F)c(-c2cn(CC(F)F)cn2)n1 [Example 337, 4-(1-(2,2-Difluoroethyl)-1H-imidazol-4-yl)-N-((3R,4S)-3-methyl-1-((1-methyl-1H-imidazol-4-yl)sulfonyl)piperidin-4-yl)-5-(trifluoromethyl)pyrimidin-2-amine]",≤ 50
17,"CC(C)(O)Cn1cnc(-c2nc(NC3CCN(S(=O)(=O)c4ccccn4)CC3)ncc2C(F)(F)F)c1 [Example 338, 2-Methyl-1-(4-(2-((1-(pyridin-2-ylsulfonyl)piperidin-4-yl)amino)-5-(trifluoromethyl)pyrimidin-4-yl)-1H-imidazol-1-yl)propan-2-ol]",≤ 50
18,"CCN1CCN(Cc2ccc(-n3cnc(-c4nc(NC5CCN(S(C)(=O)=O)CC5)ncc4C(F)(F)F)c3)c(C#N)c2)CC1 [Example 339, 5-((4-Ethylpiperazin-1-yl)methyl)-2-(4-(2-((1-(methylsulfonyl)piperidin-4-yl)amino)-5-(trifluoromethyl)pyrimidin-4-yl)-1H-imidazol-1-yl)benzonitrile]",≤ 50
19,"CC(C)NCc1ccc(-n2cnc(-c3nc(NC4CCN(S(C)(=O)=O)CC4)ncc3C(F)(F)F)c2)c(C#N)c1 [Example 340, 5-((Isopropylamino)methyl)-2-(4-(2-((1-(methylsulfonyl)piperidin-4-yl)amino)-5-(trifluoromethyl)pyrimidin-4-yl)-1H-imidazol-1-yl)benzonitrile]",≤ 50
20,"CCNCc1ccc(-n2cnc(-c3nc(NC4CCN(S(C)(=O)=O)CC4)ncc3C(F)(F)F)c2)c(C#N)c1 [Example 341, 5-((Ethylamino)methyl)-2-(4-(2-((1-(methylsulfonyl)piperidin-yl)amino)-5-(trifluoromethyl)pyrimidin-4-yl)-1H-imidazol-1-yl)benzonitrile]",≤ 50
